Measurements taken from US20070118999A1, “Compositions suitable for the treatment of hair comprising chelants and methods for reducing oxidative hair damage” (The Procter & Gamble Company, priority 2001, published 2007).

Key:
[1] = 5-Cycle Oxidative Hair Treatment Protocol with FT-IR Damage Assessing Protocol; parameters: species or system human; details: for Damage benefit vs EDTA 2% / Damage after 5 cycles (cysteic acid units): 5 bleaching cycles, pH 10, 1.9% EDDS, 2.0% HEDP, 2.65% DTPA, 3.8% DTPMP; for Damage after 5 cycles (cysteic acid units): 2% EDTA, sodium salts used; for oxidative hair damage prevention (in words): real conditions of use: pH 10, non-deionized water with Cu^2+ and Ca^2+
Method: A bleaching composition comprising the chelant to be tested is prepared by mixing in equal weight amounts a hydrogen peroxide emulsion base and an alkaline (high pH) emulsion base. The hydrogen peroxide emulsion base contains: […] 2 g of the bleaching composition per g of hair to be treated was applied on the hair switches and massaged in thoroughly. The hair switches were then wrapped in a plastic film and put in an oven at 30° C. […] The excess water was then squeezed out of the hair, and the hair dried with a fan. […] Prell® shampoo was using during these tests. This Oxidative Hair Treatment Protocol can be repeated several times. When damage is measured according to the FT-IR Damage Assessing Protocol (described below) the Oxidative Hair Treatment Protocol is preferably repeated 5 times and this process is described as a 5-Cycle Oxidative Hair Treatment Protocol. Damage caused to the hair was assessed by the FT-IR (Fourier Transform Infrared) method, which has been established to be suitable for studying the effects of oxidative treatments on hair (Strassburger, J., J. Soc. Cosmet. Chem., 36, 61-74 (1985); Joy, M. & Lewis, D. M., Int. J. Cosmet. Sci., 13, 249-261 (1991); Signori, V. & Lewis, D. M., Int. J. Cosmet. Sci., 19, 1-13 (1997)). In particular, these authors have shown that the method is suitable for quantifying the amount of cysteic acid that is produced from the oxidation of cystine. In general, the oxidation of cystine is thought to be a suitable marker by which to monitor the overall oxidation of the keratinous part of the fiber. Signori & Lewis (D. M., Int. J. Cosmet. […] They have shown that this technique is more suitable than using the FT-IR method in simple transmission or microscope modes. […] The detailed description of the method used for testing the different damage inhibitors follows thereafter: […] In this method, hair switches of various sizes and colours can be used. The switches were […] per cm) in order to minimize variations in surface area of contact between readings. The Oxidative Hair Treatment Protocol described above was repeated for 5 cycles to mimic the behavior of hair after repeated bleaching cycles. Following this treatment, four readings per switch were taken ( 1/3 and 2/3s down the switch on both sides), and an average calculated. Backgrounds were collected every 4 readings, and an ATR cell pressure of IN/m was employed. The cell was cleaned with ethanol between each reading, and a contamination check performed using the monitor ratio mode of the instrument. As prescribed by Signori & Lewis in 1997, a normalized double derivative analysis routine was used. […] This normalized absorbance was then twice derivatised using a 13 point averaging. […] The following instrumental conditions were employed: […] The corresponding weight percentage is indicated in the first line of the table below. The tri-sodium salt of EDDS, tetra-sodium salt of EDTA, di-sodium salt of HEDP, penta-sodium salt of DTPA and tetra-sodium salt of DTPMP were used. EDTA and DTPA are commonly used in hair care compositions. HEDP was cited in U.S. Pat. […] DPTMP is another phosphonate chelant. […] Damage and lightening effects were assessed after 5 cycles according to the test method described above (“Oxidative hair treatment protocol”). Human hair is often bleached or dyed 5 times or more during its life, which makes this 5 cycle test very meaningful.

[2] = 1:1 complexes, fully deprotonated chelants; 25deg, 0.1M ionic strength; cited from earlier work
[3] = 1:1 complexes, fully deprotonated chelants; 25deg, 0.1M ionic strength; cited from earlier work; remark: listed apart in the source
[4] = log Conditional Stability Constant at pH 10 with Cu; assay type: physicochemical
Text: The Conditional Stability Constant is a parameter commonly used in the art to practically assess the stability of metal-chelant complex at a given pH.

[5] = Hydrogen Peroxide Decomposition Ratio Measurement Protocol
Method: The Hydrogen Peroxide Decomposition Ratio Measurement Protocol is defined as follows: 6.0% by weight of concentrated ammonium hydroxide (30% active ammonia) is added to deionised water and the pH of the solution is adjusted to 10 using acetic acid. 300 ppm of copper sulphate and 0.026M of the chelant to be tested are added to said composition. […] The initial level of hydrogen peroxide is measured at this moment (t=0); the final level of hydrogen peroxide is measured after 30 minutes. The value of the ratio of the hydrogen peroxide concentration at t=0 and at t=30 mn is the Hydrogen Peroxide Decomposition Ratio (% Loss).
The initial and final level of hydrogen peroxide can be measured according to any standard technique. The following is a well-known and standard technique that was used by the inventors: 0.2-0.3 g (the exact quantity being precisely measured) of the solution to be titrated is added to 40 ml of 10% acetic acid. […] The level of hydrogen peroxide (% Peroxide) is then calculated from the following equation: [formula]
Three replicate runs are made at both t=0 and t=30 mn and then averaged to calculate the Hydrogen Peroxide Decomposition Ratio (% Loss).

Row | Compound | Damage benefit vs EDTA 2% [1] | log K Cu [2] | log K Ca [3] | Ratio Cu/Ca (log KCuL/log KCaL) [4] | Hydrogen Peroxide Decomposition Ratio (% Loss) ([5]; pH 10, 300 ppm copper sulphate, 0.026M chelant, 30 minutes) | Damage after 5 cycles (cysteic acid units) [1] | oxidative hair damage prevention (in words) [1] | capacity at inhibiting the red-ox chemistry of copper (in words) [5] | log Conditional Stability Constant (pH 10) Cu [4]
1 | O=P(O)(O)CN(CCN(CP(=O)(O)O)CP(=O)(O)O)CCN(CP(=O)(O)O)CP(=O)(O)O [DTPMP, diethylenetriamine-N,N,N′,N″,N″-penta(methylene phosphonate)] | +14% | 19.5 | 7.1 | – | – | – | – | – | –
2 | O=C(O)CC(NCCNC(CC(=O)O)C(=O)O)C(=O)O (stereo not drawn) [EDDS, ethylenediamine-N,N′-disuccinic acid] | +33% | 18.35 | 4.58 | 3.76 | 1.5% | 110 cysteic acid units | much less damage than hair treated with any other chelant | – | –
3 | O=C(O)CN(CCN(CC(=O)O)CC(=O)O)CC(=O)O [EDTA, ethylenediaminetetraacetic acid] | – | 18.78 | 10.65 | – | – | – | very poor damage prevention properties | very good capacity at inhibiting the red-ox chemistry of copper | –
4 | CC(O)(P(=O)(O)O)P(=O)(O)O [HEDP, 1-hydroxyethane-1,1-diphosphonic acid] | +1% | 11.84 | 6.0 | 1.75 | – | – | – | – | –
5 | diethylenetriaminepentaacetate [DTPA] | +11% | 21.4 | 10.75 | 1.85 | – | 147 cysteic acid units | – | – | 18.78
